Experimental data from article PMC4912077 (PLoS ONE, 2016).

Legend:
Sprague–Dawley rats = experiment: Acoustic startle response (ASR) magnitude in rats; type: in vivo, rat
Experimental: Male Sprague–Dawley rats from Harlan Industries (Indianapolis, IN, USA; initial weight 250–275 g) were housed in pairs under a 12-h reverse light/dark cycle (lights off at 0700 h). Use of a reversed light/dark cycle allows behavioral testing to be conducted during the awake phase of the light/dark cycle. Food and water were available ad libitum. Animals were acclimatized for approximately 1 wk after arrival prior to behavioral testing and maintained in Association for Assessment and Accreditation of Laboratory Animal Care (AAALAC)-approved facilities that meet all federal and state guidelines. Procedures were approved by the University of California San Diego institutional animal care and use committee. […]
Eight startle chambers (SR-LAB system, San Diego Instruments, San Diego, CA, USA) were used to measure startle reactivity in rats. […] The peak and average amplitudes of the startle response were detected by a piezoelectric accelerometer. At the onset of the startling stimulus, 100 1-ms readings were recorded, and the average amplitude was used to determine the magnitude of the startle response (measured in arbitrary units).
Acoustic startle test sessions consisted of startle trials (pulse-alone) and prepulse trials (prepulse + pulse). […] During each inter-trial interval, the movements of the animals were recorded once to measure response when no stimulus was present (data not shown). […]

KOR = KOR (Homo sapiens, UniProt P41145); experiment: NIMH PDSP radioligand binding, KOR
Experimental: (§1) Radioligands and concentrations used for additional 45 CNS receptor binding assays are listed as supporting information (S1 Table). This work was performed by the National Institute of Mental Health Psychoactive Drug Screening Program (NIMH PDSP) as described previously.[26] Briefly target compounds were dissolved in DMSO and subjected to a primary screen at 10,000 nM concentration. […] Additional experimental details are available in the NIMH PDSP assay protocol book.

NET = NET (Homo sapiens, UniProt P23975); experiment: Monoamine reuptake inhibition assay, NET in HEK293 cells; type: cell-based; design: expressed in transfected cells; host or cells: HEK293; settings: for Hill slope NET reuptake inhibition: HEK293 cells
Experimental: (§2) Monoamine reuptake inhibition assays were performed via the NIMH PDSP as previously described.[28] In brief, the neurotransmitter transporter uptake assay kit (R8174) (Molecular Devices) was used. Human monoamine transporters (DAT, NET and SERT) were stably expressed in HEK293 cells. Assay buffer consisted of 20 mM HEPES, 1x HBSS at pH 7.4. Cells were plated in Pol-L-Lys (PLL) coated 384-well black clear bottom cell culture plates with a density of 15,000 cells/well. Cells were incubated for at least 6 h prior to assay. Media was removed and replaced with 20 μL assay buffer and 5 μL of drug or positive control (cocaine or nisoxetine) as a 5X stock. Cells were incubated for 30 min at 37°C. 25 μL of dye solution was then added and following an additional 30 min incubation (at 37°C) fluorescence intensity was measured using a FlexStation II (bottom read mode, excitation wavelength = […], emission = 520 nM with a cutoff of 510 nM). […] Additional details are available in the NIMH PDSP assay protocol book.

DAT [1] = biological target: T1, DAT (Homo sapiens, UniProt Q01959); experiment: Monoamine reuptake inhibition assay, DAT in HEK293 cells; type: cell-based; design: expressed in transfected cells; host or cells: HEK293; settings: for Hill slope DAT reuptake inhibition: HEK293 cells
Experimental: as §2

DAT [2] = biological target: T1, DAT; experiment: NIMH PDSP radioligand binding, DAT
Experimental: as §1

Human SERT = biological target: T2, Human SERT (Homo sapiens, UniProt P31645); experiment: Monoamine reuptake inhibition assay, SERT in HEK293 cells; type: cell-based
T2 construct: expressed in transfected cells; host or cells: HEK293
Experimental: as §2

H1 = H1 (Homo sapiens, UniProt P35367); experiment: NIMH PDSP radioligand binding, H1
Experimental: as §1

Chain of NET (P23975 whole entry): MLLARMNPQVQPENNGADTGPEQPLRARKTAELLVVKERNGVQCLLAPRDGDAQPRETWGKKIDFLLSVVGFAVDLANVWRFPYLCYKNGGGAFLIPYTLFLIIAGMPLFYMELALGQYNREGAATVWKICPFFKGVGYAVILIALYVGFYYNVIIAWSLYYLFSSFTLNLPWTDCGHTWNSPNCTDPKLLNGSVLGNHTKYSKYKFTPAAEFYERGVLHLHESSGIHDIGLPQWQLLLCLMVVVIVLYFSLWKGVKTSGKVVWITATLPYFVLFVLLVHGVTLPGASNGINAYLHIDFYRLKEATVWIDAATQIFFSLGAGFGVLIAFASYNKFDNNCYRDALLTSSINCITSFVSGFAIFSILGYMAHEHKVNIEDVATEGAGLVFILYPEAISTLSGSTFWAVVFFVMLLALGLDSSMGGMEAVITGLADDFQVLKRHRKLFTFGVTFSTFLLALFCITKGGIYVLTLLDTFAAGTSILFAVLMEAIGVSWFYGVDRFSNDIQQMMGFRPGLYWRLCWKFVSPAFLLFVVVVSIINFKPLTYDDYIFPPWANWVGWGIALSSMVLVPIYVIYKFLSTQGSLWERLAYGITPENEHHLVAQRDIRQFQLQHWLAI
T1 sequence (Q01959 whole entry): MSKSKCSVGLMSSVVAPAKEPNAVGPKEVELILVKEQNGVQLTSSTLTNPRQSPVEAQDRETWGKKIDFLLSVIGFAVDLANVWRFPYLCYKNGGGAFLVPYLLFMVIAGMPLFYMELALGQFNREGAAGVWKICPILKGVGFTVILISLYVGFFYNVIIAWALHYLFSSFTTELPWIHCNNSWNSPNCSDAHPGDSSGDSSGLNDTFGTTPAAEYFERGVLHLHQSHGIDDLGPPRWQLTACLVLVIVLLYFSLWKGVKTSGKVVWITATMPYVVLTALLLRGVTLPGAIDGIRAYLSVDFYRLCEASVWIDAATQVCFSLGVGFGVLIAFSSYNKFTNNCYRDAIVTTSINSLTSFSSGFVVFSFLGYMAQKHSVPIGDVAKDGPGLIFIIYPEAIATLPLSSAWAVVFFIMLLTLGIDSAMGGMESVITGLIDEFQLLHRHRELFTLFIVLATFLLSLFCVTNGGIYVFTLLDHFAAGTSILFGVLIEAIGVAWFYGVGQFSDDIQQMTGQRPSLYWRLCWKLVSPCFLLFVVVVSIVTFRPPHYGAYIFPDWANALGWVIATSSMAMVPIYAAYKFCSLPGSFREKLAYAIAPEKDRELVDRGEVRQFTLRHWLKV
Chain of H1 (P35367 whole entry): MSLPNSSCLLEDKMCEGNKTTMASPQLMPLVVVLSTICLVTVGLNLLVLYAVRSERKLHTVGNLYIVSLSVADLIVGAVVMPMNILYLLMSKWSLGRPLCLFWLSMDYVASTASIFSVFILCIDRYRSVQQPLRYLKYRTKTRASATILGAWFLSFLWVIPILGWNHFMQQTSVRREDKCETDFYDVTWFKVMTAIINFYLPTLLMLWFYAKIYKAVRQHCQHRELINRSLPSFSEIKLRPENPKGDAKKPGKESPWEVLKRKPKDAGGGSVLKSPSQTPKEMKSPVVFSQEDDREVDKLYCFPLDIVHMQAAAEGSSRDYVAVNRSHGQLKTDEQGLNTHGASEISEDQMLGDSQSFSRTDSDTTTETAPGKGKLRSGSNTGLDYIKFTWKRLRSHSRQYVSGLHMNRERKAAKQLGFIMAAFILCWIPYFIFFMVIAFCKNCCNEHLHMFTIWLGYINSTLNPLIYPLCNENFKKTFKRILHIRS
T2 sequence (P31645 whole entry): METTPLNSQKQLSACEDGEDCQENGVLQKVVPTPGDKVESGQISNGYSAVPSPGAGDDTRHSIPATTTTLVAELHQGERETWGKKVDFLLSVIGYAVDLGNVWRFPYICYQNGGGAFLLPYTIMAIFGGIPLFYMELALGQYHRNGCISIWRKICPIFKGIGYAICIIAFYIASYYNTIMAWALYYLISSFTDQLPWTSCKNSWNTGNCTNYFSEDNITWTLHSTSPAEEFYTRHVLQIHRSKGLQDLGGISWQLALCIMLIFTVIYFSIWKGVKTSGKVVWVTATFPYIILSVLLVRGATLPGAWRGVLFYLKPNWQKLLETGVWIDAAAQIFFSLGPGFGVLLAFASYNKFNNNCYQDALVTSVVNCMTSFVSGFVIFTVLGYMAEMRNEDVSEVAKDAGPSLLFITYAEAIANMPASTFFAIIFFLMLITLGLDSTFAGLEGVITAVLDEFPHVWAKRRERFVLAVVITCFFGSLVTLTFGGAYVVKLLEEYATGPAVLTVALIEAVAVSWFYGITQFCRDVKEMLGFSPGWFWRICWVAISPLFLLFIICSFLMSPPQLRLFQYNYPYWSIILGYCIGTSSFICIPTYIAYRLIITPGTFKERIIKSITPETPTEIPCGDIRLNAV
Chain of KOR (P41145 whole entry): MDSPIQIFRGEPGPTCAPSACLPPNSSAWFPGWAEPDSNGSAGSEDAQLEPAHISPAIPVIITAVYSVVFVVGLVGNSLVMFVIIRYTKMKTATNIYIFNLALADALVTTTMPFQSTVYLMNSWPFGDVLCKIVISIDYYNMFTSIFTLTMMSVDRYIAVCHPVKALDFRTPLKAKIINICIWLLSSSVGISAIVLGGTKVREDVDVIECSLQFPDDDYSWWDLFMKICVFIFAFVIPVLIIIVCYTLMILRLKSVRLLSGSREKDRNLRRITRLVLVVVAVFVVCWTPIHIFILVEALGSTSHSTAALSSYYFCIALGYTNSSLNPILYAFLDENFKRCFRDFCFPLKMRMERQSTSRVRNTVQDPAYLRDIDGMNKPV

Row | SMILES | acoustic startle response (ASR) magnitude (Sprague–Dawley rats; 20 mg/kg s.c., vehicle 175.9 ± 29.2) [arbitrary units] | Ki (KOR) [nM] | IC50 (NET) [nM] | Hill slope NET reuptake inhibition (NET) | IC50 (DAT [1]) [nM] | Hill slope DAT reuptake inhibition (DAT [1]) | Ki (DAT [2]) [nM] | IC50 (Human SERT) [nM] | Ki (H1) [nM] | effect on magnitude of the ASR (Sprague–Dawley rats; 1.25–30 mg/kg s.c., both experiments)
1 | COc1ccccc1C(Cc1ccccc1)N1CCCCC1 (stereo not drawn) [2-MXP, 2-methoxydiphenidine] | 78.8 ± 11.9 | 1690 | 35200 | 2.04 | 30000 | 0.81 | 2910 | > 10000 | 533 | 
2 | c1ccc(CC(c2ccccc2)N2CCCCC2)cc1 (stereo not drawn) [DPH, diphenidine] |  | 3900 | 9250 | 0.97 | 1990 | 0.91 | 317 | > 10000 | 1340 | did not alter the magnitude of the ASR
